In PMC6737244, “Cathelicidin Peptides Restrict Bacterial Growth via Membrane Perturbation and Induction of Reactive Oxygen Species” (mBio, 2019):
Ends that are not written are not given here.

Legend:
[1] = system: Enterobacter cloacae OC4080; assay type: cell-based
Experimental: (§1) MICs were determined by using the broth microdilution method based on the general recommendations of the Clinical and Laboratory Standards Institute (CLSI). Bacteria were grown in CAMHB overnight. They were then diluted into fresh medium the following morning and grown to early log phase. The cultures were then diluted to approximately 5 × 10^5 CFU ml^−1, and 100 μl was added to sterile 96-well polypropylene microtiter plates (Corning, NY, USA) preloaded with twofold dilutions of antimicrobial peptides. […] All MIC assays were determined from at least three independent assays.

[2] = system: Enterobacter cloacae OC4092; assay type: cell-based
Experimental: as §1

[3] = system: Escherichia coli ATCC 25922; assay type: cell-based
Experimental: as §1

[4] = system: Escherichia coli ATCC 35218; assay type: cell-based
Experimental: as §1

Escherichia coli MC4100a = assay type: cell-based
Experimental: as §1

Escherichia coli OC4075 = assay type: cell-based
Experimental: as §1

Escherichia coli UTI89 = assay type: cell-based
Experimental: as §1

[5] = system: Klebsiella pneumoniae 262 (NDM1+); assay type: cell-based
Experimental: as §1

[6] = system: Klebsiella pneumoniae 88 (NDM1+); assay type: cell-based
Experimental: as §1

[7] = system: Klebsiella pneumoniae ATCC 700603; assay type: cell-based
Experimental: as §1

Klebsiella pneumoniae C2 = assay type: cell-based
Experimental: as §1

[8] = system: Klebsiella pneumoniae OC4110; assay type: cell-based
Experimental: as §1

[9] = system: Klebsiella pneumoniae OC8893; assay type: cell-based
Experimental: as §1

[10] = system: Pseudomonas aeruginosa ATCC 27853; assay type: cell-based
Experimental: as §1

[11] = system: Pseudomonas aeruginosa OC4083; assay type: cell-based
Experimental: as §1

[12] = system: Pseudomonas aeruginosa PAO1; assay type: cell-based
Experimental: as §1

V. cholerae [13] = assay: SYTOX Green membrane damage, single-cell imaging; assay type: cell-based, Vibrio cholerae; settings: for Number of fluorescent cells: V. cholerae, 25, 50 or 100 nM peptide (Fig. S4; legend says SYTOX Green)
Experimental: To better understand the membrane blebbing event, V. cholerae was treated with B22 in the presence of SYTOX Green and imaged on agarose pads to stabilize cells with compromised envelopes. SYTOX Green is a fluorescent nucleic acid stain that is impermeant to live cells and is used to distinguish dead or dying cells in a population ([17]). Cells were treated with a sublethal (1 μM) concentration of B22 in order to visualize physiological changes in susceptible and unaffected cells simultaneously. Time-lapse phase-contrast imaging was used to monitor tip-to-tip cell length and membrane integrity.
SYTOX Green (Invitrogen, Carlsbad, CA, USA) uptake was used to monitor the effect of the AMPs on bacterial membranes. Mid-log cells were resuspended in CAMHB to 1 × 10^6 CFU/ml and seeded into microfluidic chambers as described above. The cells were then flushed with medium containing 0.1 μM SYTOX Green for 5 min. The same medium was used for control cells, while the medium for treatment samples also included AMP at the indicated concentration. Fluorescence was detected by microscopy as described earlier using the GFP filter set.

V. cholerae [14] = assay: Single-cell real-time phase-contrast imaging in microfluidic chambers; assay type: cell-based, Vibrio cholerae; settings: 2 μM peptide, continuous flow
Experimental: To better understand the antimicrobial activity of the peptides, we developed a single-cell, real-time imaging assay to monitor the disruption of V. cholerae cells. Bacteria were seeded into microfluidic chambers and grown under continuous flow before imaging by phase-contrast microscopy. Untreated V. cholerae cells retained their characteristic comma shape, cell length (1 by 2 μm), and membrane integrity (Fig. S2). Conversely, cells treated with 2 μM B22 (or B22a) began losing their shape and were noticeably shorter within 30 s (Fig. S2).
Imaging of individual cells was conducted using the CellAsic microfluidic perfusion system (ONIX) with integrated temperature controller and B04A bacterial microfluidic plates (EMD Millipore, Billerica, MA). The CellAsic ONIX FG software (v 5.0.2.0) was used to control flow rate and deliver fresh medium with or without antimicrobial peptide (AMP). The chambers were loaded by perfusion of 50 μl of a 10^6 cells/ml bacterial suspension at 2 lb/in^2 for 15 s to prime the cells followed by 4 lb/in^2 for 15 s to trap the cells. The chamber was then rinsed at 1 lb/in^2 for 30 s followed by 5 lb/in^2 for 5 min. To quickly switch solutions, medium was perfused at 10 lb/in^2 for 10 s, and then flow was reduced to 2 lb/in^2 for the remainder of the imaging.

S. aureus [15] = assay: Growth of cultures (OD600) with sublethal peptide; assay type: cell-based, Staphylococcus aureus; settings: for Effect on growth of S. aureus cultures: 30 nM peptide, CAMHB, OD600
Experimental: To examine this further, we monitored the growth of S. aureus cultures after the addition of 30 nM B22 or B22a. This concentration is in the biologically relevant range of peptide that is produced by mammals ([13]). […] Cell growth recovered at later time points (data not shown).

S. aureus [16] = assay: CellROX ROS production, imaging; assay type: cell-based, Staphylococcus aureus; settings: for CellROX oxidative signal, parental strain: S. aureus WT; for CellROX oxidative signal, parental strain / CellROX oxidative signal, sodA or sodM null mutants: 100 nM, 30 min; for CellROX oxidative signal, sodA or sodM null mutants: S. aureus sodA or sodM
From the text: The growth rate of the sodA mutant in the absence of peptide was lower than that of the wild type (WT), underscoring the importance of effectively controlling O2^− accumulation.

E. coli = assay: Growth of cultures (OD600) with sublethal peptide; settings: nanomolar (30 nM) peptide, means of four data sets
E. cloacae = assay: Growth of cultures (OD600) with sublethal peptide; settings: nanomolar (30 nM) peptide, means of four data sets
V. cholerae [17] = assay: Growth of cultures (OD600) with sublethal peptide; settings: nanomolar (30 nM) peptide, means of four data sets
V. cholerae [18] = assay: Survival (CFU) with B22 with or without ROS scavengers or SodA
Experimental: The membrane-permeable iron chelating agent 2,2′-dipyridyl (DP) efficiently chelates free Fe^2+ and the scavenger thiourea (TU) directly quenches hydroxyl radicals generated by the Fenton reaction.
To inhibit Fenton chemistry in the cytoplasm, cells were pretreated with 75 μM concentration of the membrane-permeable agent 2,2′-dipyridyl (DP), which efficiently chelates free Fe^2+, and 150 μM concentration of the scavenger thiourea (TU), which directly quenches Fenton-generated hydroxyl radicals ([50]). These concentrations of DP and TU were confirmed not to affect bacterial growth.

Substance: FRKKLKKLFKKLSPVIPLLKLG [B22]
- MIC [1]: 4 µM
- MIC [2]: 4 µM
- MIC [3]: 2 µM
- MIC [4]: 4 µM
- MIC (Escherichia coli MC4100a): 4 µM
- MIC (Escherichia coli OC4075): 4 µM
- MIC (Escherichia coli UTI89): 2 µM
- MIC [5]: 4 µM
- MIC [6]: 4 µM
- MIC [7]: 2 µM
- MIC (Klebsiella pneumoniae C2): 4 µM
- MIC [8]: 4 µM
- MIC [9]: 4 µM
- MIC [10]: 4 µM
- MIC [11]: 2 µM
- MIC [12]: 4 µM
- Share of population with strong cytoplasmic SYTOX Green signal (V. cholerae [13]; 1 μM (sublethal), agarose pads, SYTOX Green): approximately 35%
- Decrease in cell contrast of dying cells (V. cholerae [13]; 1 μM, agarose pads, time-lapse phase contrast): > 90%
- Number of fluorescent cells (V. cholerae [13]): increased
- Time until cells began losing shape and were noticeably shorter (V. cholerae [14]): ≤ 30 s
- Effect on growth of S. aureus cultures (S. aureus [15]): reduced the initial growth rate
- Effect on growth of WT strain (S. aureus [15]; S. aureus WT, 30 nM): slowed the growth
- Effect on growth of sodA mutant (S. aureus [15]; S. aureus sodA, 30 nM, compared with WT): to an even greater extent
- CellROX oxidative signal, parental strain (S. aureus [16]): weak signal
- CellROX oxidative signal, sodA or sodM null mutants (S. aureus [16]): strong oxidative signal
- CellROX oxidative signal (S. aureus [16]; S. aureus, 500 nM, 2.5 μM CellROX): fluorescent burst
- Effect on growth rate (E. coli): reproducibly reduced the growth rate
- Effect on growth rate (E. cloacae): reproducibly reduced the growth rate
- Effect on growth rate (V. cholerae [17]): reproducibly reduced the growth rate
- Killing of V. cholerae overproducing SodA (V. cholerae [18]; 2.5 μM B22): completely suppressed
- Decrease in survival of V. cholerae overexpressing SodA (V. cholerae [18]; 5 μM B22): 10 fold
- Decrease in survival (V. cholerae [18]; V. cholerae, 2.5 μM B22): 3 log10 units
- Increase in survival by preincubation with 75 μM DP and 150 mM TU in combination (V. cholerae [18]; V. cholerae, prior to addition of B22): 13 fold

Substance: FRKKLKKLFKKLSPVIPLLKLG-NH2 [B22a]
- MIC [1]: 4 µM
- MIC [2]: 4 µM
- MIC [3]: 2 µM
- MIC [4]: 2 µM
- MIC (Escherichia coli MC4100a): 4 µM
- MIC (Escherichia coli OC4075): 2 µM
- MIC (Escherichia coli UTI89): 2 µM
- MIC [5]: 4 µM
- MIC [6]: 2 µM
- MIC [7]: 2 µM
- MIC (Klebsiella pneumoniae C2): 2 µM
- MIC [8]: 2 µM
- MIC [9]: 2 µM
- MIC [10]: 2 µM
- MIC [11]: 2 µM
- MIC [12]: 2 µM
- Number of fluorescent cells (V. cholerae [13]): increased
- Time until cells began losing shape and were noticeably shorter (V. cholerae [14]): ≤ 30 s
- Effect on growth of S. aureus cultures (S. aureus [15]): reduced the initial growth rate
- CellROX oxidative signal, parental strain (S. aureus [16]): weak signal
- CellROX oxidative signal, sodA or sodM null mutants (S. aureus [16]): strong oxidative signal
- Effect on growth rate (E. coli): reproducibly reduced the growth rate
- Effect on growth rate (E. cloacae): reproducibly reduced the growth rate
- Effect on growth rate (V. cholerae [17]): reproducibly reduced the growth rate
